{"source": "ChEMBL document CHEMBL4219247", "about": "“Inhibitors of dihydrofolate reductase as antitumor agents: design, synthesis and biological evaluation of a series of novel nonclassical 6-substituted pyrido[3,2-d]pyrimidines with a three- to five-carbon bridge” (Bioorg Med Chem, 2018)", "key": {"HeLa": {"system": "HeLa", "assay": "Antiproliferative activity against human HeLa cells after 48 hrs by MTS assay"}, "Dihydrofolate reductase": {"target": "T1, Dihydrofolate reductase (Homo sapiens, UniProt P00374)", "T1 sequence (P00374 whole entry)": "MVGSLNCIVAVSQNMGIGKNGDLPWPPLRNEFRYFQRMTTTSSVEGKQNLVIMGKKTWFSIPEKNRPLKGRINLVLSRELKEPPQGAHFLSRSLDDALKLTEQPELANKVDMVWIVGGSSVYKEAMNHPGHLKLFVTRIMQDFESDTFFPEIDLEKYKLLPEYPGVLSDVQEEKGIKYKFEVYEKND", "assay": "Inhibition of recombinant human DHFR using dihydrofolate as substrate after 15 mins in presence of NADPH"}, "HL-60 [1]": {"system": "HL-60", "assay": "Antiproliferative activity against human HL60 cells after 48 hrs by MTS assay", "assay_type": "functional, cell-based", "conditions": "HL-60, 48 h"}, "HCT-116": {"system": "HCT-116", "assay": "Antiproliferative activity against human HCT116 cells after 48 hrs by MTS assay", "assay_type": "functional, cell-based", "conditions": "HCT-116, 48 h"}, "HL-60 [2]": {"system": "HL-60", "assay": "Induction of apoptosis in human HL60 cells assessed as necrotic cells at 0.1 uM after 24 hrs by Annexin V-FITC/propidium iodide staining based flow cytometry (reference value: 2.36%)", "assay_type": "functional"}, "HL-60 [3]": {"system": "HL-60", "assay": "Cell cycle arrest in human HL60 cells assessed as accumulation at G1 phase at 1 uM after 24 hrs by propidium iodide staining based flow cytometry (reference value: 28.69%)", "assay_type": "functional"}, "HL-60 [4]": {"system": "HL-60", "assay": "Induction of apoptosis in human HL60 cells assessed as early apoptotic cells at 0.1 uM after 24 hrs by Annexin V-FITC/propidium iodide staining based flow cytometry (reference value: 2.09%)", "assay_type": "functional"}, "HL-60 [5]": {"system": "HL-60", "assay": "Upregulation of DHFR protein level in human HL60 cells at 0.5 uM after 48 hrs by Western blot method relative to control", "assay_type": "functional"}, "HL-60 [6]": {"system": "HL-60", "assay": "Upregulation of DHFR protein level in human HL60 cells at 0.25 uM after 48 hrs by Western blot method relative to control", "assay_type": "functional"}, "HL-60 [7]": {"system": "HL-60", "assay": "Induction of apoptosis in human HL60 cells assessed as late apoptotic cells at 0.1 uM after 24 hrs by Annexin V-FITC/propidium iodide staining based flow cytometry (reference value: 4.84%)", "assay_type": "functional"}, "HL-60 [8]": {"system": "HL-60", "assay": "Cell cycle arrest in human HL60 cells assessed as accumulation at G2 phase at 4 uM after 24 hrs by propidium iodide staining based flow cytometry (reference value: 13.56%)", "assay_type": "functional"}, "HL-60 [9]": {"system": "HL-60", "assay": "Induction of apoptosis in human HL60 cells assessed as live cells at 0.2 uM after 24 hrs by Annexin V-FITC/propidium iodide staining based flow cytometry (reference value: 90.7%)", "assay_type": "functional"}, "HL-60 [10]": {"system": "HL-60", "assay": "Cell cycle arrest in human HL60 cells assessed as accumulation at G2 phase at 1 uM after 24 hrs by propidium iodide staining based flow cytometry (reference value: 13.56%)", "assay_type": "functional"}, "HL-60 [11]": {"system": "HL-60", "assay": "Induction of apoptosis in human HL60 cells assessed as live cells at 0.1 uM after 24 hrs by Annexin V-FITC/propidium iodide staining based flow cytometry (reference value: 90.7%)", "assay_type": "functional"}, "HL-60 [12]": {"system": "HL-60", "assay": "Upregulation of DHFR protein level in human HL60 cells at 0.125 uM after 48 hrs by Western blot method relative to control", "assay_type": "functional"}, "HL-60 [13]": {"system": "HL-60", "assay": "Induction of apoptosis in human HL60 cells assessed as early apoptotic cells at 0.2 uM after 24 hrs by Annexin V-FITC/propidium iodide staining based flow cytometry (reference value: 2.09%)", "assay_type": "functional"}, "HL-60 [14]": {"system": "HL-60", "assay": "Cell cycle arrest in human HL60 cells assessed as accumulation at G1 phase at 4 uM after 24 hrs by propidium iodide staining based flow cytometry (reference value: 28.69%)", "assay_type": "functional"}, "HL-60 [15]": {"system": "HL-60", "assay": "Induction of apoptosis in human HL60 cells assessed as late apoptotic cells at 0.2 uM after 24 hrs by Annexin V-FITC/propidium iodide staining based flow cytometry (reference value: 4.84%)", "assay_type": "functional"}, "HL-60 [16]": {"system": "HL-60", "assay": "Cell cycle arrest in human HL60 cells assessed as accumulation at S phase at 4 uM after 24 hrs by propidium iodide staining based flow cytometry (reference value: 57.76%)", "assay_type": "functional"}, "HL-60 [17]": {"system": "HL-60", "assay": "Cell cycle arrest in human HL60 cells assessed as accumulation at S phase at 1 uM after 24 hrs by propidium iodide staining based flow cytometry (reference value: 57.76%)", "assay_type": "functional"}, "HL-60 [18]": {"system": "HL-60", "assay": "Upregulation of DHFR protein level in human HL60 cells after 48 hrs by Western blot method", "assay_type": "functional, cell-based"}, "HL-60 [19]": {"system": "HL-60", "assay": "Induction of apoptosis in human HL60 cells assessed as necrotic cells at 0.2 uM after 24 hrs by Annexin V-FITC/propidium iodide staining based flow cytometry (reference value: 2.36%)", "assay_type": "functional"}}, "note": "pIC50: −log10 of the molar value.", "data": [{"smiles": "Nc1nc(N)c2nc(/C=C/C(=O)/C=C/c3ccccc3)ccc2n1", "values": [{"measurement": "pIC50", "setting": "HeLa", "result": 5.43}, {"measurement": "pIC50", "setting": "Dihydrofolate reductase", "result": 4.15}, {"measurement": "pIC50", "setting": "HL-60 [1]", "result": 5.97}, {"measurement": "pIC50", "setting": "HCT-116", "result": 4.92}]}, {"smiles": "Nc1nc(N)c2nc(/C=C/C(=O)c3ccccc3)ccc2n1", "values": [{"measurement": "pIC50", "setting": "HeLa", "result": 5.48}, {"measurement": "pIC50", "setting": "Dihydrofolate reductase", "result": "< 4.00"}, {"measurement": "pIC50", "setting": "HL-60 [1]", "result": 5.82}, {"measurement": "pIC50", "setting": "HCT-116", "result": 4.99}]}, {"smiles": "CN(Cc1cnc2nc(N)nc(N)c2n1)c1ccc(C(=O)N[C@@H](CCC(=O)O)C(=O)O)cc1", "note": "[METHOTREXATE]", "values": [{"measurement": "pIC50", "setting": "HL-60 [1]", "result": 7.60}, {"measurement": "pIC50", "setting": "HCT-116", "result": 6.89}]}, {"smiles": "Nc1nc(N)c2nc(/C=C/C=C/c3ccccc3)ccc2n1", "values": [{"measurement": "pIC50", "setting": "HeLa", "result": 4.83}, {"measurement": "pIC50", "setting": "Dihydrofolate reductase", "result": 4.91}, {"measurement": "pIC50", "setting": "HL-60 [1]", "result": 5.17}, {"measurement": "pIC50", "setting": "HCT-116", "result": 4.75}]}, {"smiles": "Nc1nc(N)c2nc(/C=C/Cc3ccccc3)ccc2n1", "values": [{"measurement": "pIC50", "setting": "HeLa", "result": 4.60}, {"measurement": "pIC50", "setting": "Dihydrofolate reductase", "result": 6.23}, {"measurement": "pIC50", "setting": "HL-60 [1]", "result": 6.46}, {"measurement": "pIC50", "setting": "HCT-116", "result": 4.88}]}, {"smiles": "Nc1nc(N)c2nc(CCC(=O)c3ccccc3)ccc2n1", "values": [{"measurement": "pIC50", "setting": "HeLa", "result": 4.07}, {"measurement": "pIC50", "setting": "Dihydrofolate reductase", "result": 4.95}, {"measurement": "pIC50", "setting": "HL-60 [1]", "result": 5.09}, {"measurement": "pIC50", "setting": "HCT-116", "result": 4.68}]}, {"smiles": "Nc1nc(N)c2nc(CCCCCc3ccccc3)ccc2n1", "values": [{"measurement": "pIC50", "setting": "HeLa", "result": 4.39}, {"measurement": "pIC50", "setting": "Dihydrofolate reductase", "result": 6.15}, {"measurement": "pIC50", "setting": "HL-60 [1]", "result": 6.11}, {"measurement": "pIC50", "setting": "HCT-116", "result": 4.93}]}, {"smiles": "Nc1nc(N)c2nc(CCCCc3ccccc3)ccc2n1", "values": [{"measurement": "pIC50", "setting": "HeLa", "result": 4.33}, {"measurement": "pIC50", "setting": "Dihydrofolate reductase", "result": 6.21}, {"measurement": "pIC50", "setting": "HL-60 [1]", "result": 6.23}, {"measurement": "pIC50", "setting": "HCT-116", "result": 4.96}]}, {"smiles": "Nc1nc(N)c2nc(CCCc3ccccc3)ccc2n1", "values": [{"measurement": "Activity", "setting": "HL-60 [2]", "result": 2.21, "unit": "%"}, {"measurement": "Activity", "setting": "HL-60 [3]", "result": 24.26, "unit": "%"}, {"measurement": "Activity", "setting": "HL-60 [4]", "result": 3.45, "unit": "%"}, {"measurement": "fold change (FC)", "setting": "HL-60 [5]", "result": 1.98}, {"measurement": "fold change (FC)", "setting": "HL-60 [6]", "result": 1.62}, {"measurement": "Activity", "setting": "HL-60 [7]", "result": 6.69, "unit": "%"}, {"measurement": "Activity", "setting": "HL-60 [8]", "result": 0, "unit": "%"}, {"measurement": "Activity", "setting": "HL-60 [9]", "result": 76.35, "unit": "%"}, {"measurement": "Activity", "setting": "HL-60 [10]", "result": 13.35, "unit": "%"}, {"measurement": "pIC50", "setting": "HeLa", "result": 4.31}, {"measurement": "Activity", "setting": "HL-60 [11]", "result": 87.64, "unit": "%"}, {"measurement": "pIC50", "setting": "Dihydrofolate reductase", "result": 7.22}, {"measurement": "fold change (FC)", "setting": "HL-60 [12]", "result": 1.03}, {"measurement": "pIC50", "setting": "HL-60 [1]", "result": 6.70}, {"measurement": "Activity", "setting": "HL-60 [13]", "result": 6.63, "unit": "%"}, {"measurement": "Activity", "setting": "HL-60 [14]", "result": 19.34, "unit": "%"}, {"measurement": "Activity", "setting": "HL-60 [15]", "result": 11.06, "unit": "%"}, {"measurement": "Activity", "setting": "HL-60 [16]", "result": 80.66, "unit": "%"}, {"measurement": "pIC50", "setting": "HCT-116", "result": 5.02}, {"measurement": "Activity", "setting": "HL-60 [17]", "result": 62.39, "unit": "%"}, {"measurement": "Activity", "setting": "HL-60 [18]", "result": "Dose-dependent effect"}, {"measurement": "Activity", "setting": "HL-60 [19]", "result": 5.96, "unit": "%"}]}, {"smiles": "Nc1nc(N)c2nc(CCC(O)c3ccccc3)ccc2n1", "note": "(stereo not drawn)", "values": [{"measurement": "pIC50", "setting": "HeLa", "result": 4.13}, {"measurement": "pIC50", "setting": "Dihydrofolate reductase", "result": 5.56}, {"measurement": "pIC50", "setting": "HL-60 [1]", "result": 5.82}, {"measurement": "pIC50", "setting": "HCT-116", "result": 4.76}]}, {"smiles": "Nc1nc(N)c2nc(CCC(O)CCc3ccccc3)ccc2n1", "note": "(stereo not drawn)", "values": [{"measurement": "pIC50", "setting": "HeLa", "result": 4.19}, {"measurement": "pIC50", "setting": "Dihydrofolate reductase", "result": 5.60}, {"measurement": "pIC50", "setting": "HL-60 [1]", "result": 5.91}, {"measurement": "pIC50", "setting": "HCT-116", "result": 4.69}]}, {"smiles": "Nc1nc(N)c2nc(/C=C/CCCc3ccccc3)ccc2n1", "values": [{"measurement": "pIC50", "setting": "HeLa", "result": 4.76}, {"measurement": "pIC50", "setting": "Dihydrofolate reductase", "result": 5.68}, {"measurement": "pIC50", "setting": "HL-60 [1]", "result": 5.88}, {"measurement": "pIC50", "setting": "HCT-116", "result": 4.81}]}, {"smiles": "Nc1nc(N)c2nc(CCC(=O)CCc3ccccc3)ccc2n1", "values": [{"measurement": "pIC50", "setting": "HeLa", "result": 4.11}, {"measurement": "pIC50", "setting": "Dihydrofolate reductase", "result": 5.10}, {"measurement": "pIC50", "setting": "HL-60 [1]", "result": 5.43}, {"measurement": "pIC50", "setting": "HCT-116", "result": 4.48}]}]}
